Data set [1] has as its system SK-MEL-28 cells. Nature of the data set: Proliferation assay, SK-MEL-28. Type of data set: cell-based, human. The settings on record: SK-MEL-28, MTX alone.
Protocol: B, Proliferation assays performed of control or MTX/TMECG-treated (10 μM/1 μM) SK-MEL-28 cells. […] For time course assay MTX (1 μM) and TMECG (10 μM) were used. […] Data were obtained in triplicate in two independent experiments. […] H, effects of MTX/TMECG (1 μM/10 μM) on cell number of indicated cell lines. Error bars show mean±SD. […] Error bars show mean±SD.
Melanoma cell lines of human and mouse origin were obtained from ATCC and maintained in the appropriate culture medium supplemented with 10% FBS and antibiotics. Cell viability was evaluated using the 3-(4,5-dimethylthiazol-2-yl)-2,5-diphenyltetrazolium bromide (MTT) cell proliferation assay.
Data set [2] relates to SK-MEL-28 cells. Nature of the data set: Apoptosis assay (cytoplasmic histone-associated DNA fragmentation ELISA), SK-MEL-28. The settings on record: SK-MEL-28, MTX alone. It is filed as cell-based, human. The protocol:
FIGS. 2A-N. MTX and TMECG combination therapy induces apoptosis via dTTP depletion and DNA-damage. A, Intracellular accumulation of TMECG-QM in SK-MEL-28 treated with TMECG or MTX/TMECG for 24 h. B, Proliferation assays performed of control or MTX/TMECG-treated (10 μM/1 μM) SK-MEL-28 cells. C, Quantification of effects of MTX/TMECG treatment on SK-MEL-28 cells (*P<0.05 with respect to TMECG-treated cells). For time course assay MTX (1 μM) and TMECG (10 μM) were used. D, dNTP quantification in melanoma cells subjected to indicated treatments (*P<0.05). […] K, quantification of γH2AX foci in SK-MEL-28 cells treated with MTX (1 μM) and/or TMECG (10 μM), or X-rays. […] N, Cell cycle profile determined by flow cytometry of SK-MEL-28 cells treated with a sublethal dose of MTX/TMECG. […]
The induction of apoptosis was assessed by performing cytoplasmic histone-associated DNA fragmentation using a kit from Roche Diagnostics (Barcelona, Spain). […] The amount of nucleosomes is photometrically quantified at 405 nm by the peroxidase activity retained in the immunocomplexes. Apoptosis was defined as the specific enrichment of mono- and oligonucleosomes in the cytoplasm and was calculated by dividing the absorbance of treated samples by the absorbance of untreated samples after correcting for the number of cells. […]
For orientation: An ELISA detects its analyte on a solid surface through an enzyme-linked reagent.

In the next data set the test system is MITF. As to the kind of experiment: ChIP assay, occupancy of MITF on TYR and Pmel17 genes in SK-MEL-28 cells. It is filed as cell-based. The note with it: Homo sapiens, SK-MEL-28, MTX 4 h.
Another data set deals with MCF7. Nature of the data set: HPLC/MS/MS intracellular levels of MTX in MCF7. The settings on record: MCF7, same MTX treatment (24 h, 1 μM). It is filed as cell-based.

Each structure is given as a SMILES string. Like-named read-outs stand apart in the source and are kept apart here.

Protocol for MITF: F, Chromatin immunoprecipitation on TYR and Pmel17 genes of control and MTX-treated (4 h, 1 μM) SK-MEL-28 cells with qRT-PCR after immunoprecipitation with IgG, or MITF and HDAC3 antibodies.
The ChIP assay was performed with the Magna ChIP™ G kit from Millipore according to the manufacturer's instructions. […] The cross-linked chromatin was then used for immunoprecipitation with MITF antibody, HDAC3 antibody (positive control) or mouse IgG (negative control). DNA from lysates prior to immunoprecipitation was used as positive input controls.

For `CN(Cc1cnc2nc(N)nc(N)c2n1)c1ccc(C(=O)N[C@@H](CCC(=O)O)C(=O)O)cc1` [MTX, methotrexate], the proliferation result in the data set with SK-MEL-28 cells [1] was “reduced proliferation”. Moreover, the induction of apoptosis entry in the data set on SK-MEL-28 cells [2] is reported as “did not induce apoptosis”. Besides, the receptor occupancy at 1 µM with MITF (untreated cells 1.5%, read-out: occupancy of MITF on the TYR promoter with respect to an input control) was found to be 25.2%; with MITF (untreated cells 5.4%, read-out: occupancy of MITF on the promoter/enhancer of the Pmel17 gene with respect to an input control), 45.4%. Besides, the “intracellular levels of MTX” value with MCF7 is listed as 1.3 ± 0.4 pmol/106 cells.

These data come from patent US20150231109A1, “COMBINATIONS (CATECHINS AND METHOTREXATE) FOR USE IN THE TREATMENT OF MELANOMAS” (UNIVERSIDAD DE MURCIA, priority 2012, published 2015).
